How the values were obtained:
[1] = system: SARS-CoV-2 (SARS-CoV2/ZG/297-20) in Vero E6 cells; assay: microbe, parasite or virus in culture; type: cell-based; conditions: Severe acute respiratory syndrome coronavirus 2, Vero C1008, 72 h; for inhibition at 10 µM: read-out: Antiviral Activity 10 uM; for inhibition at 50 µM: read-out: Antiviral Activity 50 uM
[2] = biological target: T1, recombinant SARS-CoV-2 main protease (Mpro) (Severe acute respiratory syndrome coronavirus 2, UniProt P0DTD1); assay: biochemical; conditions: FRET assay, Mpro 50 nM, substrate 10 μM
T1 construct: the main protease (Mpro; also called 3CLpro) which has an essential role in processing the polyproteins

## O=C1CCC(N2C(=O)c3cccc(NCCOCCOCCOCCNC(=O)C(NC(=O)[C@@H](c4cccnc4)N(C(=O)c4ccco4)c4ccc5c(c4)oc4ccccc45)c4ccccc4)c3C2=O)C(=O)N1 (mixture of isomers) [TS297F1]
[1]
  inhibition at 10 µM: < 0%
  inhibition at 50 µM: < 0%
[2]
  IC50: < 1 µM

## O=C1CCC(N2C(=O)c3cccc(NCCCCCNC(=O)C(NC(=O)[C@@H](c4cccnc4)N(C(=O)c4ccco4)c4ccc5c(c4)oc4ccccc45)c4ccccc4)c3C2=O)C(=O)N1 (mixture of isomers) [TS301F1]
[1]
  inhibition at 10 µM: < 0%
  inhibition at 50 µM: < 0%
[2]
  IC50: 10 to 25 µM

## O=C1CCC(N2C(=O)c3cccc(NCCOCCOCCOCCOCCNC(=O)C(NC(=O)[C@@H](c4cccnc4)N(C(=O)c4ccco4)c4ccc5c(c4)oc4ccccc45)c4ccccc4)c3C2=O)C(=O)N1 (mixture of isomers) [TS303F1]
[1]
  inhibition at 10 µM: < 0%
  inhibition at 50 µM: < 0%
[2]
  IC50: < 1 µM

## O=C1CCC(N2C(=O)c3cccc(NCCOCCNC(=O)C(NC(=O)[C@@H](c4cccnc4)N(C(=O)c4ccco4)c4ccc5c(c4)oc4ccccc45)c4ccccc4)c3C2=O)C(=O)N1 (mixture of isomers) [TS312F1]
[1]
  inhibition at 10 µM: < 0%
  inhibition at 50 µM: < 0%
[2]
  IC50: < 10 µM

## O=C1CCC(N2C(=O)c3cccc(NCCCCNC(=O)[C@@H](NC(=O)C(c4cccnc4)N(C(=O)c4ccco4)c4ccc5c(c4)oc4ccccc45)c4ccccc4)c3C2=O)C(=O)N1 (mixture of isomers) [TS313F1]
[1]
  inhibition at 10 µM: < 25%
  inhibition at 50 µM: < 0%
[2]
  IC50: < 1 µM

## O=C1CCC(N2C(=O)c3cccc(NCCNC(=O)[C@@H](NC(=O)[C@@H](c4cccnc4)N(C(=O)c4ccco4)c4ccc5c(c4)oc4ccccc45)c4ccccc4)c3C2=O)C(=O)N1 (mixture of isomers) [TS365F1]
[1]
  inhibition at 10 µM: < 75%
  inhibition at 50 µM: < 25%
[2]
  IC50: < 1 µM

## O=C1CCC(N2C(=O)c3cccc(NCCCCCCCCNC(=O)[C@@H](NC(=O)C(c4cccnc4)N(C(=O)c4ccco4)c4ccc5c(c4)oc4ccccc45)c4ccccc4)c3C2=O)C(=O)N1 (mixture of isomers) [TS369F1]
[1]
  inhibition at 10 µM: < 25%
  inhibition at 50 µM: < 25%
[2]
  IC50: > 25 µM

## O=C1CCC(N2C(=O)c3cccc(NCCNC(=O)[C@H](NC(=O)[C@@H](c4cccnc4)N(C(=O)c4ccco4)c4ccc(-c5ccccc5)cc4)c4ccccc4)c3C2=O)C(=O)N1 (mixture of isomers) [TS449F1]
[1]
  inhibition at 10 µM: < 0%
  inhibition at 50 µM: < 0%
[2]
  IC50: < 0.1 µM

## O=C1CCC(N2C(=O)c3cccc(NCCCCNC(=O)[C@H](NC(=O)[C@@H](c4cccnc4)N(C(=O)c4ccco4)c4ccc(-c5ccccc5)cc4)c4ccccc4)c3C2=O)C(=O)N1 (mixture of isomers) [TS451F1]
[1]
  inhibition at 10 µM: < 0%
  inhibition at 50 µM: < 0%
[2]
  IC50: < 10 µM

## O=C1CCC(N2C(=O)c3cccc(NCCOCCOCCOCCNC(=O)[C@H](NC(=O)[C@@H](c4cccnc4)N(C(=O)c4ccco4)c4ccc(-c5ccccc5)cc4)c4ccccc4)c3C2=O)C(=O)N1 (mixture of isomers) [TS455F1]
[1]
  inhibition at 10 µM: < 0%
  inhibition at 50 µM: < 0%
[2]
  IC50: < 0.1 µM

## O=C1CCC(N2C(=O)c3cccc(NCCCNC(=O)[C@@H](NC(=O)[C@@H](c4cccnc4)N(C(=O)c4ccco4)c4ccc(-c5ccccc5)cc4)c4ccccc4)c3C2=O)C(=O)N1 (single isomer, unassigned) [TS450F1]
[1]
  inhibition at 10 µM: < 0%
  inhibition at 50 µM: < 0%
[2]
  IC50: < 1 µM

## O=C1CCC(N2C(=O)c3cccc(NCCOCCNC(=O)[C@@H](NC(=O)[C@@H](c4cccnc4)N(C(=O)c4ccco4)c4ccc(-c5ccccc5)cc4)c4ccccc4)c3C2=O)C(=O)N1 (single isomer, unassigned) [TS453F1b]
[1]
  inhibition at 10 µM: < 0%
  inhibition at 50 µM: < 0%
[2]
  IC50: < 1 µM

## O=C1CCC(N2C(=O)c3cccc(NCCOCCOCCNC(=O)C(NC(=O)C(c4cccnc4)N(C(=O)c4ccco4)c4ccc(-c5ccccc5)cc4)c4ccccc4)c3C2=O)C(=O)N1 (single isomer, unassigned) [TS454F1]
[1]
  inhibition at 10 µM: < 0%
  inhibition at 50 µM: < 0%
[2]
  IC50: < 1 µM

## O=C1CCC(N2C(=O)c3ccc(NCCOCCNC(=O)[C@H](NC(=O)[C@@H](c4cccnc4)N(C(=O)c4ccco4)c4ccc(-c5ccccc5)cc4)c4ccccc4)cc3C2=O)C(=O)N1 (single isomer, unassigned) [TS462]
[1]
  inhibition at 10 µM: < 25%
  inhibition at 50 µM: < 25%
[2]
  IC50: < 1 µM

## O=C1CCC(N2C(=O)c3ccc(NCCOCCOCCNC(=O)[C@H](NC(=O)[C@@H](c4cccnc4)N(C(=O)c4ccco4)c4ccc(-c5ccccc5)cc4)c4ccccc4)cc3C2=O)C(=O)N1 (single isomer, unassigned) [TS464]
[1]
  inhibition at 10 µM: < 0%
  inhibition at 50 µM: < 25%
[2]
  IC50: < 1 µM

## O=C1CCC(N2C(=O)c3ccc(NCCOCCOCCOCCNC(=O)[C@H](NC(=O)[C@@H](c4cccnc4)N(C(=O)c4ccco4)c4ccc(-c5ccccc5)cc4)c4ccccc4)cc3C2=O)C(=O)N1 (single isomer, unassigned) [TS465]
[1]
  inhibition at 10 µM: < 25%
  inhibition at 50 µM: < 50%
[2]
  IC50: < 0.1 µM

## O=C1CCC(N2C(=O)c3ccc(N4CCN(C(=O)[C@H](NC(=O)[C@@H](c5cccnc5)N(C(=O)c5ccco5)c5ccc(-c6ccccc6)cc5)c5ccccc5)CC4)cc3C2=O)C(=O)N1 (single isomer, unassigned) [TS466]
[1]
  inhibition at 10 µM: < 0%
  inhibition at 50 µM: < 0%
[2]
  IC50: < 0.1 µM

## C[C@H](NC(=O)[C@@H](c1cccnc1)N(C(=O)c1ccco1)c1ccc(-c2ccccc2)cc1)c1ccccc1OCCCCOc1cccc2c1C(=O)N(C1CCC(=O)NC1=O)C2=O (stereo in doubt) [TS355F1]
[2]
  IC50: < 10 µM

## O=C1CCC(N2C(=O)c3cccc(NCCOCCOCCNC(=O)[C@@H](NC(=O)C(c4cccnc4)N(C(=O)c4ccco4)c4ccc5c(c4)oc4ccccc45)c4ccccc4)c3C2=O)C(=O)N1 (some centres unmarked) [TS302F1]
[2]
  IC50: < 10 µM

## C[C@@H](NC(=O)[C@H](c1cccnc1)N(C(=O)c1ccco1)c1ccc(-c2ccccc2)cc1)c1cccc(OCCCCOc2cccc3c2C(=O)N(C2CCC(=O)NC2=O)C3=O)c1 (some centres unmarked) [TS325F1]
[2]
  IC50: < 10 µM

## C[C@@H](NC(=O)C(c1cccnc1)N(C(=O)c1ccco1)c1ccc(-c2ccccc2)cc1)c1cccc(OCCCCOc2cccc3c2C(=O)N(C2CCC(=O)NC2=O)C3=O)c1 (some centres unmarked) [TS325F2]
[2]
  IC50: < 10 µM

## C[C@@H](NC(=O)[C@H](c1cccnc1)N(C(=O)c1ccco1)c1ccc(-c2ccccc2)cc1)c1cccc(OCCOc2cccc3c2C(=O)N(C2CCC(=O)NC2=O)C3=O)c1 (some centres unmarked) [TS338F1]
[2]
  IC50: 10 to 25 µM

## C[C@@H](NC(=O)[C@H](c1cccnc1)N(C(=O)c1ccco1)c1ccc(-c2ccccc2)cc1)c1cccc(OCCCCCCCCOc2cccc3c2C(=O)N(C2CCC(=O)NC2=O)C3=O)c1 (some centres unmarked) [TS339F2]
[2]
  IC50: 10 to 25 µM

## Cc1ncsc1-c1ccc(CNC(=O)[C@@H]2C[C@@H](O)CN2C(=O)[C@@H](NC(=O)C2(F)CC2)C(C)(C)C)c(OCCNC(=O)[C@@H](NC(=O)C(c2cccnc2)N(C(=O)c2ccco2)c2ccc3c(c2)oc2ccccc23)c2ccccc2)c1 (some centres unmarked) [TS347F1]
[2]
  IC50: < 10 µM

## Cc1ncsc1-c1ccc(CNC(=O)[C@@H]2C[C@@H](O)CN2C(=O)[C@@H](NC(=O)C2(F)CC2)C(C)(C)C)c(OCCCCCCNC(=O)[C@@H](NC(=O)C(c2cccnc2)N(C(=O)c2ccco2)c2ccc3c(c2)oc2ccccc23)c2ccccc2)c1 (some centres unmarked) [TS349F1]
[2]
  IC50: < 10 µM

Reference: US20260137677A1, “PROTACS USEFUL AGAINST THE MAIN PROTEASE SARS-COV-2” (Tocris Cookson Limited, priority 2022, published 2026)
